Reference: a melting point compilation (Tetko et al.; mined from patent text by program, amines drawn as free bases though some values may be those of a salt)

Row | SMILES | melting point [°C]
1 | O=C(O)Cc1cn(-c2ccccc2)c2ccccc12 | 131 to 135
2 | CC(=O)CN1C(=O)C(NC(=O)Nc2cccc(-c3nnn[nH]3)c2)N=C(c2ccccc2F)c2cccc(C)c21 (configuration not stated) | 174 to 190
3 | CN1C(=O)C(C)(C)Oc2ccc(C3=NNC(=O)CC3)cc21 | 169 to 171
4 | CC1CN(C)c2c3c(nc4cccc(c24)O1)CCCC3 (configuration not stated) | 125 to 126
5 | CC(=O)S[C@H]1CO[C@@H](c2ccccc2)OC1 | 94 to 95
6 | O=[N+]([O-])c1cccc2cc(-c3ccccn3)[nH]c12 | 162 to 163
7 | O=c1ccc(C(F)(F)F)cn1Cc1ccc(F)cc1 | 70.1 to 72
8 | Cc1ccc2c(c1)oc1c(C(=O)NC34CC5CC(CC(C5)C3)C4)nn(-c3ccc(Cl)cc3Cl)c12 | 210 to 212
9 | CC(=O)C1=C(O)C(=C(C)Nc2ccc(N)cc2)C(=O)OC1=O | 215 to 218
10 | Cc1c(C)c2c(c(C)c1Br)C(c1ccc(C(C)C)cc1)CO2 (configuration not stated) | 86 to 87
11 | COc1ccc(-c2c(CO)c(C)nc3cc(OC)c(OC)cc23)cc1OC | 200 to 201
12 | COCCOC(=O)COc1ccc(C(=O)[C@H](COC(C)(C)C)NC(=O)c2ccc(C(=N)NC(=O)OC(C)(C)C)cc2)cc1 | 174
13 | CC(C)(C)[C@@H](CO)NS(=O)(=O)c1ccc(Cl)cc1 | 128 to 130
14 | O=C(O)c1ccc(OCCn2ncc3nc(C(=O)NCc4cccc(OCCOc5nc[nH]n5)c4)[nH]c(=O)c32)cc1 | 176 to 178
15 | CNN1c2cc(Cl)cc(Cl)c2[C@@H](C(=O)Nc2ccccc2)C[C@@H]1C(=O)O (relative stereo) | 139 to 140
16 | COc1cc(N2CCC(N3CCOCC3)C2)ccc1Nc1ncc2ccc(-c3ccccc3OC)n2n1 (configuration not stated) | 80 to 87
17 | Cc1cc(-c2ccccc2)nc(-c2cccc([N+](=O)[O-])c2)c1C(=O)N1CCN(C)CC1 | 127 to 129
18 | C=CC(=O)Cc1ccc(-c2ccc(CC(=O)C=C)cc2)cc1 | 61 to 62
19 | Clc1cnn2c(-c3ccncc3)ccnc12 | 183 to 184
20 | N#CCC(=O)c1ccc(C(F)(F)F)cc1[N+](=O)[O-] | 79.5 to 80.5
21 | COc1nc2ccc(Br)cc2cc1C(c1ccccc1)n1cccn1 (configuration not stated) | 142 to 144

Row | SMILES | melting point [°C]
22 | CC(C)[C@H](NC(=O)OCc1ccccn1)C(=O)N[C@@H](Cc1ccccc1)C[C@H](O)[C@H](Cc1ccccc1)NC(=O)OCc1cncs1 | 166 to 168
23 | COC(=O)C(Cc1cc(C)c(Oc2ccc(O)c(Cc3ccc(OC)nc3)c2)c(C)c1)NC(C)=O (configuration not stated) | 186 to 188
24 | CC(C)(C)OC(=O)Cn1c(C(=O)O)cc2cc(N)ccc21 | 128
25 | CC(=O)OCC(=O)C1=CCC2C3CCC4=CC(=O)C=CC4(C)C3C(O)CC12C (configuration not stated) | 203 to 205
26 | O=C(Nc1nccs1)C1CSc2sccc2C1=O (configuration not stated) | 201 to 203
27 | CNC(=O)c1cnn(-c2ccccc2)c1Cl | 182 to 183
28 | O=Cc1ccc2c(c1)c1ccccc1n2CCCCCCCCCCn1c2ccccc2c2cc(C=O)ccc21 | 122
29 | CS(=O)(=O)Cc1cccc(C(F)(F)F)c1N | 96 to 98
30 | COC(=O)c1cc2c(C)ccc(C)c2n1C(=O)OC | 75 to 80
31 | Cc1c(N2CC3CN(Cc4ccccc4)CC3C2)nn2c(-c3ccnc(NC(=O)OC(C)(C)C)c3)c(-c3ccc(F)cc3)nc2c1C (configuration not stated) | 214 to 216
32 | CCOC(=O)C(=O)Nc1cccc(OCCO)c1C(N)=O | 146 to 148
33 | CCCCCCCCCCCCCCCCOCC(CF)COC(c1ccccc1)(c1ccccc1)c1ccccc1 (configuration not stated) | 32
34 | Cc1cc(C(O)=S)c(Cl)cc1Cl | 187
35 | CC(C)(CCc1ccccc1)NCC(O)CO (configuration not stated) | 74 to 77
36 | CCCCc1nc2c(N)nc3ccccc3c2n1CCNC(=O)CCCCC1SCC2NC(=N)NC21 (configuration not stated) | 95 to 96
37 | Cc1cc(C2(C(F)(F)F)CN=C(c3ccc(Cl)cc3)S2)ccc1NC(=O)c1cccc(I)c1C(=O)NC(C)C (configuration not stated) | 121 to 123
38 | CCCCCNC1=CC(=O)c2c(OC)ccc(OC)c2C1=O | 102 to 103
39 | O=C1NC(=O)C(c2ccc3c(c2)CCC3)S1 (configuration not stated) | 124 to 125
40 | CCCCn1c(Cc2cc(OC)ccc2Cl)nc2c(N)ncnc21 | 138 to 139
41 | CCOC(=O)COC1=C(C(=O)Nc2cc(Cl)cc(Cl)c2)SC2=NCCCN21 | 165
42 | OCc1cnc(-c2ccc(Cl)cc2)o1 | 115 to 116

Row | SMILES | melting point [°C]
43 | Cc1ccnc(-c2nc(=O)c3ccc(Cl)cc3s2)c1 | 246 to 247
44 | CC(=O)OCC(=O)CS(=O)(=O)C(c1ccc(Cl)cc1)c1ccc(Cl)cc1 | 57 to 60
45 | CNc1c(F)cc2c(=O)c(C(=O)O)cn(-c3nc(N)c(F)cc3F)c2c1Cl | 251 to 253
46 | O=C(O)CCC(Cc1ccccc1Cl)(C(=O)C=Cc1c(Cl)cccc1Cl)c1ccccc1 (configuration not stated) | 140 to 143
47 | COc1ccc(CCCN)cc1Cl | 55 to 56
48 | O=C(NC(CO)CNS(=O)(=O)c1ccc(Oc2ccccc2)cc1)OCc1ccccc1 (configuration not stated) | 86 to 89
49 | CC(CO)(Oc1ccc(C(=O)c2ccc(Cl)cc2)cc1)C(=O)O (configuration not stated) | 172 to 174
50 | COc1cc2c(c(Cl)c1Cl)C(=O)C(c1ccccc1)(C1CCCC1)C2 (configuration not stated) | 105 to 108
51 | CCOC(=Cc1ccc(-c2cccc(N(C)C(=O)Nc3ccc(C)cc3)c2)cc1)C(=O)O | 92
52 | c1ccc(NC(Nc2ccccc2)Nc2ccccc2)cc1 | 138 to 139
53 | COc1ccc2ccc(N3C(=O)c4ccccc4C3OCC(=O)OC(C)(C)C)nc2n1 (configuration not stated) | 188
54 | O=C(Nc1ccccc1)OCC1c2ccccc2-c2ccccc21 | 243 to 244
55 | COc1cc([N+](=O)[O-])c(CO)c(OC)c1OC | 69 to 70
56 | COC(=O)C1=C(O)c2c(c3cc(OC)ccc3n2C)S(=O)(=O)N1C | 200 to 201
57 | CCCCCCCNC(=O)N(C)c1cccc(-c2ccc(C=CC(=O)O)c(F)c2)c1 | 148 to 149
58 | NC(=O)CCN1CC2CN(Cc3ccccc3)CC(C1)O2 | 157 to 159
59 | Cc1ccc2nc(C)c(C(=O)NNC(=O)CCl)n2c1 | 290 to 291
60 | C=CCC(C(=O)N1C(=O)OCC1Cc1ccccc1)c1ccc(F)cc1 (configuration not stated) | 103 to 104
61 | CN1C(=O)CC[C@]2(C)c3ccc(CCc4ccccc4)cc3CC[C@@H]12 | 109 to 111
62 | CC1=C(C(=O)OC(C)(C)C)C(c2ccccc2Br)C(C(=O)OC(C)(C)C)=C(C)N1 | 162 to 164
63 | O=C(CCl)N1CC(c2ccccc2)c2ccccc21 (configuration not stated) | 76 to 78

Second part, the molecule after the results:

Row | melting point [°C] | SMILES
64 | 233 to 234 | C[C@H](NC(=O)OCc1ccccc1)C(=O)N[C@@H](C)C(=O)NC1CCCCC1
65 | 90 | N#Cc1nc(Cl)c(-c2c(F)cccc2Cl)c(Cl)c1Br
66 | 91 to 94 | CC(C)OP(=O)(CCCCC1(C(=O)NCC(F)(F)F)c2ccccc2-c2ccccc21)OC(C)C
67 | 85 to 87 | CCc1cc(Oc2ncc(C(F)(F)F)cc2Cl)nn1C(=O)NC
68 | 187 to 190 | Nc1nc(N)c2ncn(CCC(CO)CO)c2n1
69 | 252 to 254 | O=C1c2ccccc2C2(O)Oc3c(ccc4c3CCCC4)C12O (configuration not stated)
70 | 31 to 33 | COC(=O)c1cc(C)cnc1Cl
71 | 215 to 217 | C[Si](C)(C)c1cccc2cc(C(=O)Nc3ccc(N4CC(O)C4)nc3)n(Cc3cccc(F)c3)c12
72 | 65 to 66 | O=[N+]([O-])c1ccc(F)c(Br)c1O
73 | 140 to 142 | CC=NN(C(=O)c1ccc(Cl)cc1)c1ccc2c(c1)OCO2
74 | 274 to 275 | O=C(O)c1cnc2occc2c1
75 | 174 to 179 | O=C1C(=Cc2ccc(Cl)cc2)Cc2ccccc21
76 | 185 to 187 | COc1cn(-c2ccc(-c3cnn(C(F)F)c3)cc2F)nc(-c2ccnn2-c2ccccc2)c1=O
77 | 200 | Cn1cncc1C(O)(c1ccc(Cl)cc1)c1ccc2c(c1)c(-c1nc(-c3ccccc3)cs1)cc(=O)n2C (configuration not stated)
78 | 106 to 108 | CCCCOC(=O)CN(Cc1ccccc1OC)S(=O)(=O)c1ccc2c(Cl)cnc(Cl)c2c1
79 | 110 to 113 | O=C1C(=O)c2ccccc2C2=C1SCC1(CCN(C3CCCC3O)CC1)O2 (configuration not stated)
80 | 208 to 209 | CCCn1c(-c2ccc(I)cc2)nc2cc(C#N)c(C#N)cc21

Row | melting point [°C] | SMILES
81 | 148 to 149 | CNC1CN(C(=O)Nc2ccc(C(F)(F)F)cc2)N=C1c1ccc(Cl)cc1 (configuration not stated)
82 | 172 to 177 | Nc1c(C(=O)CCC(=O)O)cccc1C(=O)c1ccc(Cl)cc1
83 | 162 to 163 | CCN1CC(=O)N(c2cc(Oc3ncccc3C(F)(F)F)c(Cl)cc2F)C1=O
84 | 185 to 186 | Cn1cc(-c2cccc(N3Cc4cc(C(C)(C)C)ccc4C3=O)c2CO)cc(Nc2ccc(C3CNC3)cn2)c1=O
85 | > 260 | O=C1CCC(N2C(=O)c3cccc(Nc4ccc5c(c4)OCO5)c3C2=O)C(=O)N1 (configuration not stated)
86 | 90 | COC(=O)CCc1ccc(C(=O)CCl)cc1
87 | 116 to 117 | CN(CCOc1ccc(CC(OCC(F)(F)F)C(=O)O)cc1)c1nc2ccccc2o1 (configuration not stated)
88 | 262 to 268 | CSC1=C(Cl)CC2C3CCC4=CC(=O)C=CC4(C)C3(F)C(O)CC12C (configuration not stated)
89 | 188 to 190 | Cn1ncnc1COc1nn2c(-c3ccccc3F)nncc2c1-c1ccco1
90 | 87 to 89 | OCC1OC(n2cnc3c(NCC4(c5ccccc5)CCCCC4)ncnc32)C(O)C1O (configuration not stated)
91 | 131 to 133 | O=C(c1c2n(c3ccccc13)CCNCC2)C(F)(F)F
92 | 243 to 245 | CCc1ncc2n1N=C(c1ccc([N+](=O)[O-])cc1)c1cc3c(cc1C2)OCO3
93 | 121 to 123 | COC(=O)CCC(=O)Nc1cccc(COc2ccc(C(C)=O)c(O)c2)c1
94 | 151 to 152 | O=C(NO)c1ccc(CNC(=O)c2[nH]c(-c3cccs3)cc2-c2ccc(F)cc2)nc1
95 | 151 to 152 | O=C(Nc1ccccc1C(=NC1CCN(Cc2ccccc2)CC1)c1ccccc1)C(Cl)(Cl)Cl
96 | 191 to 194 | COc1cc2c3c(n(C(=O)c4ccccc4)c2cc1OC)CCC(C(=O)O)C3 (configuration not stated)
97 | 110 to 115 | CN(C(c1ccccc1)c1ccccc1)S(=O)(=O)CC(N)=O
